{
  "source": "patent US12312627B2",
  "about": "“Microorganisms and methods for production of 4-hydroxybutyrate, 1,4-butanediol and related compounds” (priority 2013, dated 2025)",
  "molecules": {"B1": {"name": "yjgB: E. coli alcohol dehydrogenase yjgB (GenBank NP_418690.4) identified as carrying backflux activity (protein, UniProt P27250 1-339, looked up)", "Aldehyde reductase Ahr": "MSMIKSYAAKEAGGELEVYEYDPGELRPQDVEVQVDYCGICHSDLSMIDNEWGFSQYPLVAGHEVIGRVVALGSAAQDKGLQVGQRVGIGWTARSCGHCDACISGNQINCEQGAVPTIMNRGGFAEKLRADWQWVIPLPENIDIESAGPLLCGGITVFKPLLMHHITATSRVGVIGIGGLGHIAIKLLHAMGCEVTAFSSNPAKEQEVLAMGADKVVNSRDPQALKALAGQFDLIINTVNVSLDWQPYFEALTYGGNFHTVGAVLTPLSVPAFTLIAGDRSVSGSATGTPYELRKLMRFAARSKVAPTTELFPMSKINDAIQHVRDGKARYRVVLKADF"}},
  "key": {"[1]": {"system": "aminotransferase from Leishmania mexicana", "details": "enzyme expressed in E. coli; cited from earlier work"}, "cytochrome bd oxidase": {"system": "cytochrome bd oxidase", "details": "cited from earlier work"}, "cytochrome bo oxidase": {"target": "cytochrome bo oxidase (Escherichia coli, UniProt P0ABI8)", "sequence (P0ABI8 whole entry)": "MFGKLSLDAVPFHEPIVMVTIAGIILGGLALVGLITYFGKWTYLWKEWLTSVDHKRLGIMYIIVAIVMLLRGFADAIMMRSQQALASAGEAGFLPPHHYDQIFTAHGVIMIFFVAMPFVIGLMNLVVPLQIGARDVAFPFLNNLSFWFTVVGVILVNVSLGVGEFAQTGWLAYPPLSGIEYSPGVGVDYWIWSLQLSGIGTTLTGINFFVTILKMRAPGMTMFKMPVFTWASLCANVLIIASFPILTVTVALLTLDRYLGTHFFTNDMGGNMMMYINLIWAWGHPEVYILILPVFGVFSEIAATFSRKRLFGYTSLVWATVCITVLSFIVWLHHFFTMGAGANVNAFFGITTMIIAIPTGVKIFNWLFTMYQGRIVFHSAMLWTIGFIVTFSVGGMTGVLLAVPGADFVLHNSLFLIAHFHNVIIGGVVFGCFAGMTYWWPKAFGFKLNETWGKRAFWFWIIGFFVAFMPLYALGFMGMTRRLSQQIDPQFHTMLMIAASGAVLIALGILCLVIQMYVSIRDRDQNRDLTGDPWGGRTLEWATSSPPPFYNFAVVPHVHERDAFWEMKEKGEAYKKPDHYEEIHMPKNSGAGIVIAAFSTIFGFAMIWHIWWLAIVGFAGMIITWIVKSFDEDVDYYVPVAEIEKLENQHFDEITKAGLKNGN", "sequence (P0ABJ1 25-315 partner)": "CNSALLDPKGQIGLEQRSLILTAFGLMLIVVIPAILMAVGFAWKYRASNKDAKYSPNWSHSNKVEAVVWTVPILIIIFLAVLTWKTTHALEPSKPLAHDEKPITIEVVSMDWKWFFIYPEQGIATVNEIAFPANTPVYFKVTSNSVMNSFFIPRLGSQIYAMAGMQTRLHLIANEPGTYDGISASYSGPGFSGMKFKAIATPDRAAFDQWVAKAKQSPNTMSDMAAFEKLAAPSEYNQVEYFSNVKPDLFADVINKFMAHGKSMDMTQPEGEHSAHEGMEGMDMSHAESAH", "sequence (P0ABJ3 whole entry partner)": "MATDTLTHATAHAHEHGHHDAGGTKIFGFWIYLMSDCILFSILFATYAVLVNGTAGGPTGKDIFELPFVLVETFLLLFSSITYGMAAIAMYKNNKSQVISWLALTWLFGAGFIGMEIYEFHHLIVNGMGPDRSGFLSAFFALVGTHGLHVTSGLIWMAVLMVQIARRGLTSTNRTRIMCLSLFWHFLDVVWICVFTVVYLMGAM", "sequence (P0ABJ6 whole entry partner)": "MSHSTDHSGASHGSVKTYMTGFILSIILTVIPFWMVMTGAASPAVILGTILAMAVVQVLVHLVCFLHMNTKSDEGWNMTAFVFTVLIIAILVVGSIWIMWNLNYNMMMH", "details": "read-out: Km for O2; cited from earlier work"}, "[2]": {"target": "T1, endogenous alcohol dehydrogenase backflux activity (Escherichia coli, UniProt P27250)", "T1 sequence (P27250 1-339)": "B1 Aldehyde reductase Ahr", "details": "purified streptavidin-tagged protein, in the presence of NADP+", "text": "The sample was purified while following the backflux activity.\nThe yjgB gene was cloned with a streptavidin tag, expressed and purified in order to characterize its properties."}},
  "data": [
    {"molecule": "N[C@@H](Cc1c[nH]c2ccccc12)C(=O)O", "note": "[tryptophan]", "values": [
      {"measurement": "activity (considered 100% on tyrosine)", "setting": "[1]", "value": 85, "unit": "%"}
    ]},
    {"molecule": "Cytochrome bd-II", "values": [
      {"measurement": "In vivo sp act (mol O2/mol cytochrome bd/s)", "setting": "cytochrome bd oxidase; from Bekker et al. 2009", "value": "70 ± 12 mol O2/mol cytochrome bd/s"},
      {"measurement": "Vmax (mol O/mol cytochrome bd/s)", "setting": "cytochrome bd oxidase; from Bekker et al. 2009", "value": "818 ± 75", "unit": "mol O/mol cytochrome bd/s"}
    ]},
    {"molecule": "N[C@@H](Cc1ccccc1)C(=O)O", "note": "[phenylalanine]", "values": [
      {"measurement": "activity (considered 100% on tyrosine)", "setting": "[1]", "value": 90, "unit": "%"}
    ]},
    {"molecule": "CSCC[C@H](N)C(=O)O", "note": "[methionine]", "values": [
      {"measurement": "activity (considered 100% on tyrosine)", "setting": "[1]", "value": 25, "unit": "%"}
    ]},
    {"molecule": "CC(C)C[C@H](N)C(=O)O", "note": "[leucine]", "values": [
      {"measurement": "activity (considered 100% on tyrosine)", "setting": "[1]", "value": 25, "unit": "%"}
    ]},
    {"molecule": "O=O", "note": "[Sample O2]", "values": [
      {"measurement": "Km", "setting": "cytochrome bd oxidase; read-out: Km for O2", "value": 0.01, "unit": "µM"},
      {"measurement": "Km", "setting": "cytochrome bo oxidase", "value": "~1", "unit": "µM"}
    ]},
    {"molecule": "N[C@@H](Cc1ccc(O)cc1)C(=O)O", "note": "[tyrosine]", "values": [
      {"measurement": "activity (considered 100% on tyrosine)", "setting": "[1]", "value": 100, "unit": "%"}
    ]},
    {"molecule": "B1", "values": [
      {"measurement": "activity with BDO as a substrate", "setting": "[2]", "value": "robust activity"}
    ]}
  ]
}
